Assay results: ChEMBL document CHEMBL1150753, “Antitumor agents, 93. Bruceanol C, a new cytotoxic quassinoid from Brucea antidysenterica” (1988)
Converted amounts (≈) assume the structure as drawn.

Columns and labels:
Assay type in all cases: functional
Settings in all cases: read-out: ED50 (the source's name)
[1] = system: A549; assay: Cytotoxicity against human A549 cells
[2] = system: P388; assay: Cytotoxicity against mouse P388 cells
[3] = system: KB; assay: Cytotoxicity against human KB cells
[4] = system: HCT-8; assay: Cytotoxicity against human HCT8 cells

**Q.** How did the EC50 [1] turn out when `COC(=O)[C@]12OC[C@]34[C@H]([C@@H](O)[C@@H]1O)[C@@]1(C)[C@H](O)C(=O)C=C(C)[C@@H]1C[C@H]3OC(=O)[C@H](OC(=O)/C=C(\C)C(C)(C)OC(C)=O)[C@@H]24` [Bruceanol C] was run?
**A.** The EC50 was 0.48 µg/mL (≈ 0.791 µM).

**Q.** And the EC50 [2]?
**A.** Its EC50 is 0.56 µg/mL (≈ 0.923 µM).

**Q.** And the EC50 [3]?
**A.** The EC50 was under 0.04 µg/mL.

**Q.** And the EC50 [4]?
**A.** Its EC50 is under 0.4 µg/mL.
